These results are taken from patent US20040248887A1, “Inhibitors of cathepsin S” (IRM LLC, priority 2003, published 2004).

The structures appear in SMILES notation.

Usually Ki stands for the equilibrium dissociation constant of an inhibitor or competing ligand from its target.

The experiment concerns the target Cathepsin S (Homo sapiens, UniProt P25774). The experiment in a line: Cathepsin S inhibition, fluorogenic peptide substrate kinetic assay. The note with it: Table II; Cathepsin S inhibition constant, pH5.5; read-out: Ki Cat. S. Format: biochemical. In outline:
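Reactions were started with 50 μM (final) acetyl-His-Pro-Val-Lys-aminocarbamoylcoumarin, and hydrolysis was followed by fluorescence (ex 380/em 450 nm). Apparent inhibition constants from enzyme progress curves were converted to Ki for competitive inhibitors using substrate concentration and Km.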

Sequence of Cathepsin S (P25774 115-331, species assumed): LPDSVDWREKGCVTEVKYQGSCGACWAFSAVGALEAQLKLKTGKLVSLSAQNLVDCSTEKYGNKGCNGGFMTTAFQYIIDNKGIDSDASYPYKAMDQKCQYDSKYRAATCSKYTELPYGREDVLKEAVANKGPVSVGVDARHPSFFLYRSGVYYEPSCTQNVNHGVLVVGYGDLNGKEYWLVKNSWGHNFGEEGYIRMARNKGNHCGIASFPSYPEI

Turning to `C[C@@H](CNc1cccc(S(C)(=O)=O)c1)NC(=O)[C@H](CC1CCCCC1)NC(=O)c1ccc(-c2cccc(F)c2)o1` [Compound 88, 5-(3-Fluoro-phenyl)-furan-2-carboxylic acid {2-cyclohexyl-1-(S)-[2-(3-methanesulfonyl-phenylamino)-1-(S)-methyl-ethylcarbamoyl]-ethyl}-amide], the Ki is under 100 nM. As for `Cc1cccc(C(=O)N[C@@H](Cc2cccc(Cl)c2)C(=O)NCCN2CCc3cc(F)ccc32)c1` [Compound 197, N-((S)-1-(2-(5-fluoroindolin-1-yl)ethylcarbamoyl)-2-(3-chlorophenyl)ethyl)-3-methylbenzamide], the figure is under 1000 nM.

Consider `O=C(N[C@@H](CC1CCCCC1)C(=O)N[C@@H](CO)CN1CCc2cc(F)ccc21)c1ccc(-c2cccc(C(F)(F)F)c2)o1` [Compound 153, 5-(3-Trifluoromethyl-phenyl)-furan-2-carboxylic acid {2-cyclohexyl-1-(S)-[2-(5-fluoro-2,3-dihydro-indol-1-yl)-1-(R)-hydroxymethyl-ethylcarbamoyl]-ethyl}-amide], for which the Ki is under 100 nM. Regarding `C[C@@H](CN1CCc2cc(F)ccc21)NC(=O)[C@H](CC1CCCCC1)NC(=O)OCc1ccccc1` [Compound 174, {2-Cyclohexyl-1-(S)-[2-(5-fluoro-2,3-dihydro-indol-1-yl)-1-(S)-methyl-ethylcarbamoyl]-ethyl}-carbamic acid benzyl ester], the Ki was under 100 nM. As to `C[C@@H](CN1CCc2cc(F)ccc21)NC(=O)[C@H](CC1CCCCC1)NS(=O)(=O)c1cccc(OC(F)(F)F)c1` [Compound 254, (S,S)-3-Cyclohexyl-N-[2-(5-fluoro-2,3-dihydro-indol-1-yl)-1-methyl-ethyl]-2-(3-trifluoromethoxy-benzenesulfonylamino)-propionamide], the Ki was under 100 nM. As for `O=C(N[C@@H](CC1CCCCC1)C(=O)NCCN1CCc2cc(F)ccc21)C1CC1` [Compound 14, Cyclopropanecarboxylic acid (S)-{2-cyclohexyl-1-[2-(5-fluoro-2,3-dihydro-indol-1-yl)-ethylcarbamoyl]-ethyl}-amide], the figure is under 100 nM; as for `C[C@@H](CN1CC(C)(C)c2cc(F)ccc21)NC(=O)[C@H](CC(C)(C)C)NC(=O)[C@H]1CCCO1` [Compound 271, Tetrahydro-furan-2-(R)-carboxylic acid {1-(S)-[2-(5-fluoro-3,3-dimethyl-2,3-dihydro-indol-1-yl)-1-(S)-methyl-ethylcarbamoyl]-3,3-dimethyl-butyl}-amide], under 10000 nM; as for `Cc1cccc(S(=O)(=O)N[C@@H](CC(C)(C)C)C(=O)N[C@@H](CC(=O)OC(C)(C)C)CN2CCc3cc(F)ccc32)c1` [Compound 252, (S,S)-3-[4,4-Dimethyl-2-(toluene-3-sulfonylamino)-pentanoylamino]-4-(5-fluoro-2,3-dihydro-indol-1-yl)-butyric acid tert-butyl ester], under 1000 nM. The same measure for `COc1ccc(NCC(C)NC(=O)C(CC2CCCCC2)NC(=O)c2cccc(OC)c2)cc1` [Compound 26, N-{2-Cyclohexyl-(1S)-[2-(4-methoxy-phenylamino)-(1R)-methyl-ethylcarbamoyl]-ethyl}-3-methoxy-benzamide]: under 100 nM; for `C[C@@H](CNc1ccc(OC(F)(F)F)cc1)NC(=O)[C@H](CC1CCCCC1)NC(=O)c1cc(-c2cccc(F)c2)no1` [Compound 145, 3-(3-Fluoro-phenyl)-isoxazole-5-carboxylic acid {2-cyclohexyl-1-(S)-[1-(S)-methyl-2-(4-trifluoromethoxy-phenylamino)-ethylcarbamoyl]-ethyl}-amide]: under 1000 nM; for `C[C@@H](CN1CC(C)(C)c2cc(F)ccc21)NC(=O)[C@H](CC1CCCCC1)NC(=O)O[C@@H]1CCOC1` [Compound 216, {2-Cyclohexyl-1-(S)-[2-(5-fluoro-3,3-dimethyl-2,3-dihydro-indol-1-yl)-1-(S)-methyl-ethylcarbamoyl]-ethyl}-carbamic acid (R)-tetrahydrofaran-3-yl ester]: under 100 nM. The same measure for `O=C(N[C@@H](CC1CCCCC1)C(=O)NCCN1CCc2cc(F)ccc21)C1CCN(S(=O)(=O)c2ccc(F)cc2)CC1` [Compound 66, 1-(4-Fluoro-benzenesulfonyl)-piperidine-4-carboxylic acid (S)-{2-cyclohexyl-1-[2-(5-fluoro-2,3-dihydro-indol-1-yl)-ethylcarbamoyl]-ethyl}-amide]: under 1000 nM; for `C[C@@H](CNc1cccc(S(C)(=O)=O)c1)NC(=O)[C@H](CC1CCCCC1)NC(=O)c1ccc(-c2ccc(F)cc2)o1` [Compound 106, 5-(4-Fluoro-phenyl)-furan-2-carboxylic acid {2-cyclohexyl-1-(S)-[2-(3-methanesulfonyl-phenylamino)-1-(S)-methyl-ethylcarbamoyl]-ethyl}-amide]: under 100 nM; for `CS(=O)(=O)c1ccc(C(=O)N[C@@H](CC2CCCCC2)C(=O)NCCN2CCc3cc(F)ccc32)s1` [Compound 72, 5-Methanesulfonyl-thiophene-2-carboxylic acid (S)-{2-cyclohexyl-1-[2-(5-fluoro-2,3-dihydro-indol-1-yl)-ethylcarbamoyl]-ethyl}-amide]: under 100 nM. Turning to `O=C(NCCN1CCc2cc(F)ccc21)[C@H](CC1CCCCC1)NS(=O)(=O)c1ccc(C(F)(F)F)cc1` [Compound 229, (S)-3-Cyclohexyl-N-[2-(5-fluoro-2,3-dihydro-indol-1-yl)-ethyl]-2-(4-trifluoromethyl-benzenesulfonylamino)-propionamide], the Ki is under 1000 nM. On to `COc1ccc(NC[C@H](C)NC(=O)[C@H](CC2CCCCC2)NC(=O)c2ccc(-c3cccc(F)c3)o2)cc1` [Compound 86, 5-(3-Fluoro-phenyl)-furan-2-carboxylic acid {2-cyclohexyl-1-(S)-[2-(4-methoxy-phenylamino)-1-(S)-methyl-ethylcarbamoyl]-ethyl}-amide], for which the Ki is under 100 nM.

For `C[C@@H](CNc1ccc(OC(F)(F)F)cc1)NC(=O)[C@H](CC1CCCCC1)NC(=O)c1ccc(-c2ccc[n+]([O-])c2)o1` [Compound 144, 5-(1-Oxy-pyridin-3-yl)-furan-2-carboxylic acid {2-cyclohexyl-1-(S)-[1-(S)-methyl-2-(4-trifluoromethoxy-phenylamino)-ethylcarbamoyl]-ethyl}-amide], the Ki was under 100 nM.

`O=C(N[C@@H](CC1CCCCC1)C(=O)N[C@@H](COCc1ccccc1)CN1CCc2cc(F)ccc21)c1ccc(-c2cccc(C(F)(F)F)c2)o1` [Compound 152, 5-(3-Trifluoromethyl-phenyl)-furan-2-carboxylic acid {1-(S)-[1-(R)-benzyloxymethyl-2-(5-fluoro-2,3-dihydro-indol-1-yl)-ethylcarbamoyl]-2-cyclohexyl-ethyl}-amide]: the Ki was under 100 nM. The same measure for `COc1ccc(NC[C@H](C)NC(=O)[C@H](CC2CCCCC2)NC(=O)c2ccc(-c3ccc(F)cc3)o2)cc1` [Compound 105, 5-(4-Fluoro-phenyl)-furan-2-carboxylic acid {2-cyclohexyl-1-(S)-[2-(4-methoxy-phenylamino)-1-(S)-methyl-ethylcarbamoyl]-ethyl}-amide]: under 100 nM; for `COc1cccc(C(=O)N[C@@H](CC2CCCCC2)C(=O)N[C@@H](CC(=O)O)CN2CCc3cc(F)ccc32)c1` [Compound 162, 3-(S)-[3-Cyclohexyl-2-(S)-(3-methoxy-benzoylamino)-propionylamino]-4-(5-fluoro-2,3-dihydro-indol-1-yl)-butyric acid]: under 100 nM; for `C[C@@H](C(=O)N[C@@H](CCC1CCCCC1)C(=O)NCCN1CCc2cc(F)ccc21)c1ccccc1` [Compound 102, 4-Cyclohexyl-N-[2-(5-fluoro-2,3-dihydro-indol-1-yl)-ethyl]-2-(S)-(2-(R)-phenyl-propionylamino)-butyramide]: under 100 nM. Regarding `O=C(N[C@@H](CC1CCCCC1)C(=O)NCCN1CCc2cc(F)ccc21)C1CCN(S(=O)(=O)c2ccc(Cl)cc2)CC1` [Compound 17, 1-(4-Chloro-benzenesulfonyl)-piperidine-4-carboxylic acid (S)-{2-cyclohexyl-1-[2-(5-fluoro-2,3-dihydro-indol-1-yl)-ethylcarbamoyl]-ethyl}-amide], the Ki was under 1000 nM. For `O=C(NCCN1CCc2cc(F)ccc21)[C@H](CC1CCCCC1)NS(=O)(=O)c1cccc2ccccc12` [Compound 228, (S)-3-Cyclohexyl-N-[2-(5-fluoro-2,3-dihydro-indol-1-yl)-ethyl]-2-(naphthalene-1-sulfonylamino)-propionamide], the Ki was under 1000 nM. Turning to `C[C@@H](CNc1ccccc1F)NC(=O)[C@H](CC1CCCCC1)NC(=O)c1ccc(-c2cccc(F)c2)o1` [Compound 95, 5-(3-Fluoro-phenyl)-furan-2-carboxylic acid {2-cyclohexyl-1-(S)-[2-(2-fluoro-phenylamino)-1-(S)-methyl-ethylcarbamoyl]-ethyl}-amide], the Ki was under 100 nM.

Take `COCCC(=O)N[C@@H](CC1CCCCC1)C(=O)N[C@@H](C)CNc1ccc(OC(F)(F)F)cc1` [Compound 123, 3-Cyclohexyl-2-(S)-(3-methoxy-propionylamino)-N-[1-(S)-methyl-2-(4-trifluoromethoxy-phenylamino)-ethyl]-propionamide]: the Ki was under 100 nM. As to `C[C@@H](CNc1ccc(OC(F)(F)F)cc1)NC(=O)[C@H](CC1CCCCC1)NC(=O)c1nc(-c2ccc(F)cc2)no1` [Compound 109, 3-(4-Fluoro-phenyl)-[1,2,4]oxadiazole-5-carboxylic acid {2-cyclohexyl-1-(S)-[1-(S)-methyl-2-(4-trifluoromethoxy-phenylamino)-ethylcarbamoyl]-ethyl}-amide], the Ki was under 100 nM. For the compound `COc1ccc(Oc2ccc(S(=O)(=O)N[C@@H](CC3CCCCC3)C(=O)NCCN3CCc4cc(F)ccc43)cc2)cc1` [Compound 244, (S)-3-Cyclohexyl-N-[2-(5-fluoro-2,3-dihydro-indol-1-yl)-ethyl]-2-[4-(4-methoxy-phenoxy)-benzenesulfonylamino]-propionamide], the Ki was under 100 nM.
